From PubChem BioAssay (NCI)
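Protocol summary: plate cells (96-well), add compound at 5 concentrations, incubate 48 h, interpolate endpoints linearly. TGI: concentration producing complete growth inhibition.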

Key:
Assay in all cases: growth of human tumour cells (NCI), 48 h
[1] = tested on: MCF7 breast
[2] = tested on: CCRF-CEM leukemia
[3] = tested on: KM20L2 colon
[4] = tested on: RPMI-8226 leukemia
[5] = tested on: NCI-H460 lung
[6] = tested on: A549 NSCLC
[7] = tested on: NCI/ADR-RES ovarian
[8] = tested on: HCT-15 colon
[9] = tested on: MDA-MB-231 breast
[10] = tested on: LXFL 529 NSCLC
[11] = tested on: NCI-H226 lung
[12] = tested on: CAKI-1 renal
[13] = tested on: HCT-116 colon
[14] = tested on: SF-268 CNS
[15] = tested on: UACC-62 melanoma
[16] = tested on: SN12C renal
[17] = tested on: BT-549 breast
[18] = tested on: A498 renal
[19] = tested on: SK-OV-3 ovarian
[20] = tested on: MOLT-4 leukemia
[21] = tested on: NCI-H522 lung
[22] = tested on: DU-145 prostate
[23] = tested on: SNB-75 CNS
[24] = tested on: MALME-3M melanoma
[25] = tested on: MDA-N
[26] = tested on: K-562 leukemia
[27] = tested on: OVCAR-4 ovarian
[28] = tested on: U251 CNS
[29] = tested on: HT29 colon
[30] = tested on: ACHN renal
[31] = tested on: HOP-92 NSCLC
[32] = tested on: EKVX NSCLC
[33] = tested on: UO-31 renal
[34] = tested on: DMS 114 small cell lung
[35] = tested on: RXF 393 renal
[36] = tested on: SR leukemia
[37] = tested on: OVCAR-5 ovarian
[38] = tested on: UACC-257 melanoma
[39] = tested on: M19-MEL melanoma
[40] = tested on: PC-3 prostate
[41] = tested on: SF-539 CNS
[42] = tested on: SNB-19 CNS
[43] = tested on: IGROV1 ovarian
[44] = tested on: DLD-1 colon
[45] = tested on: SNB-78 CNS
[46] = tested on: LOX IMVI melanoma
[47] = tested on: OVCAR-3 ovarian
[48] = tested on: TK-10 renal
[49] = tested on: HOP-62 NSCLC
[50] = tested on: DMS 273 small cell lung
[51] = tested on: MDA-MB-435
[52] = tested on: NCI-H23 lung
[53] = tested on: OVCAR-8 ovarian
[54] = tested on: SK-MEL-5 melanoma
[55] = tested on: COLO 205 colon
[56] = tested on: KM12 colon
[57] = tested on: SF-295 CNS
[58] = tested on: SK-MEL-28 melanoma
[59] = tested on: M14 melanoma
[60] = tested on: SW-620 colon
[61] = tested on: HCC-2998 colon
[62] = tested on: 786-0 renal
[63] = tested on: T-47D breast
[64] = tested on: HL-60(TB) leukemia
[65] = tested on: SK-MEL-2 melanoma
[66] = tested on: XF 498 CNS

**Q.** Which results are given for COc1ccc2nc(C)cc(NCCCCCCCCCNc3cc(C)nc4ccc(OC)cc34)c2c1?
**A.** TGI [1]: 2.47 µM; TGI [2]: 11.2 µM; TGI [3]: 6.36 µM; TGI [4]: > 24.7 µM; TGI [5]: 1.77 µM; TGI [6]: 8.3 µM; TGI [7]: 34.8 µM; TGI [8]: 5.32 µM; TGI [9]: 2.54 µM; TGI [10]: 2.4 µM; TGI [11]: 27.6 µM; TGI [12]: 18.3 µM; TGI [13]: 1.46 µM; TGI [14]: 11.3 µM; TGI [15]: 7.34 µM; TGI [16]: 11.4 µM; TGI [17]: 21.1 µM; TGI [18]: 43.4 µM; TGI [19]: 25.7 µM; TGI [20]: > 34.7 µM; TGI [21]: 2.13 µM; TGI [22]: 19.5 µM; TGI [23]: 12.5 µM; TGI [24]: 17.7 µM; TGI [25]: 2.83 µM; TGI [26]: 2.93 µM; TGI [27]: 9.32 µM; TGI [28]: 5.77 µM; TGI [29]: 2.05 µM; TGI [30]: 21.2 µM; TGI [31]: 5.21 µM; TGI [32]: 7.36 µM; TGI [33]: 28.3 µM; TGI [34]: 2.51 µM; TGI [35]: 5.96 µM; TGI [36]: 29.3 µM; TGI [37]: 15.2 µM; TGI [38]: 21.2 µM; TGI [39]: 31.9 µM; TGI [40]: 5.01 µM; TGI [41]: 2.4 µM; TGI [42]: 10.2 µM; TGI [43]: 9.1 µM; TGI [44]: 6.61 µM; TGI [45]: 26.4 µM; TGI [46]: 1.99 µM; TGI [47]: 2.76 µM; TGI [48]: 9.77 µM; TGI [49]: 10.6 µM; TGI [50]: 13.4 µM; TGI [51]: 2.95 µM; TGI [52]: 6.89 µM; TGI [53]: 1.42 µM; TGI [54]: 3.11 µM; TGI [55]: 7.47 µM; TGI [56]: 2.74 µM; TGI [57]: 2.33 µM; TGI [58]: 29.9 µM; TGI [59]: 5.9 µM; TGI [60]: 2.32 µM; TGI [61]: 2.73 µM; TGI [62]: 2.31 µM; TGI [63]: 3.46 µM; TGI [64]: 5.25 µM; TGI [65]: 10.8 µM; TGI [66]: 3.69 µM

**Q.** Oc1c(-c2ccccc2)nc2ccccn12 was tested. Which TGI [2] did it give?
**A.** > 100 µM

**Q.** And the TGI [3]?
**A.** > 100 µM

**Q.** What about the TGI [5] of the same molecule?
**A.** > 100 µM

**Q.** And the TGI [6]?
**A.** > 100 µM

**Q.** What about the TGI [10] of the same molecule?
**A.** > 100 µM

**Q.** And the TGI [11]?
**A.** > 100 µM

**Q.** And the TGI [12]?
**A.** > 100 µM

**Q.** What about the TGI [13] of the same molecule?
**A.** > 100 µM

**Q.** What about the TGI [14] of the same molecule?
**A.** > 100 µM

**Q.** And the TGI [15]?
**A.** > 100 µM

**Q.** And the TGI [16]?
**A.** > 100 µM

**Q.** What about the TGI [18] of the same molecule?
**A.** > 100 µM

**Q.** And the TGI [19]?
**A.** > 100 µM

**Q.** And the TGI [20]?
**A.** > 100 µM

**Q.** What about the TGI [21] of the same molecule?
**A.** > 100 µM

**Q.** And the TGI [23]?
**A.** > 100 µM

**Q.** What about the TGI [24] of the same molecule?
**A.** > 100 µM

**Q.** And the TGI [26]?
**A.** > 100 µM

**Q.** What about the TGI [27] of the same molecule?
**A.** > 100 µM

**Q.** What about the TGI [28] of the same molecule?
**A.** > 100 µM

**Q.** What about the TGI [29] of the same molecule?
**A.** > 100 µM

**Q.** And the TGI [30]?
**A.** > 100 µM

**Q.** What about the TGI [32] of the same molecule?
**A.** > 100 µM

**Q.** What about the TGI [33] of the same molecule?
**A.** > 100 µM

**Q.** What about the TGI [34] of the same molecule?
**A.** > 100 µM

**Q.** What about the TGI [35] of the same molecule?
**A.** > 100 µM

**Q.** And the TGI [36]?
**A.** > 100 µM

**Q.** And the TGI [37]?
**A.** > 100 µM

**Q.** And the TGI [38]?
**A.** > 100 µM

**Q.** What about the TGI [39] of the same molecule?
**A.** > 100 µM

**Q.** What about the TGI [41] of the same molecule?
**A.** > 100 µM

**Q.** And the TGI [42]?
**A.** > 100 µM

**Q.** And the TGI [43]?
**A.** > 100 µM

**Q.** What about the TGI [44] of the same molecule?
**A.** > 100 µM

**Q.** And the TGI [45]?
**A.** > 100 µM

**Q.** And the TGI [47]?
**A.** > 100 µM

**Q.** And the TGI [48]?
**A.** > 100 µM

**Q.** And the TGI [49]?
**A.** > 100 µM

**Q.** What about the TGI [50] of the same molecule?
**A.** > 100 µM

**Q.** What about the TGI [52] of the same molecule?
**A.** > 100 µM

**Q.** And the TGI [53]?
**A.** > 100 µM

**Q.** What about the TGI [54] of the same molecule?
**A.** > 100 µM

**Q.** What about the TGI [56] of the same molecule?
**A.** > 100 µM

**Q.** What about the TGI [57] of the same molecule?
**A.** > 100 µM

**Q.** What about the TGI [58] of the same molecule?
**A.** > 100 µM

**Q.** And the TGI [59]?
**A.** > 100 µM

**Q.** What about the TGI [60] of the same molecule?
**A.** > 100 µM

**Q.** And the TGI [61]?
**A.** > 100 µM

**Q.** And the TGI [62]?
**A.** > 100 µM

**Q.** What about the TGI [64] of the same molecule?
**A.** > 100 µM

**Q.** What about the TGI [65] of the same molecule?
**A.** > 100 µM

**Q.** What about the TGI [66] of the same molecule?
**A.** > 100 µM
